Data from patent US20260158017A1, “KIF18A INHIBITOR” (WIGEN BIOMEDICINE TECHNOLOGY (SHANGHAI) CO., LTD., priority 2021, published 2026).

target: T1, Recombinant human KIF18A (1-467His-tagged) protein (Homo sapiens, UniProt Q8NI77); test: KIF18A enzyme assay (microtubule-stimulated ATPase activity, ADP-Glo); assay type: biochemical; conditions: 30 nM KIF18A, 75 μM ATP, 30 μg/mL pig microtubules; read-out: Inhibitory activity against KIF18A IC50
T1 construct: Recombinant human KIF18A (1-467His-tagged) protein; His; made in house
T1 sequence (Q8NI77 1-467): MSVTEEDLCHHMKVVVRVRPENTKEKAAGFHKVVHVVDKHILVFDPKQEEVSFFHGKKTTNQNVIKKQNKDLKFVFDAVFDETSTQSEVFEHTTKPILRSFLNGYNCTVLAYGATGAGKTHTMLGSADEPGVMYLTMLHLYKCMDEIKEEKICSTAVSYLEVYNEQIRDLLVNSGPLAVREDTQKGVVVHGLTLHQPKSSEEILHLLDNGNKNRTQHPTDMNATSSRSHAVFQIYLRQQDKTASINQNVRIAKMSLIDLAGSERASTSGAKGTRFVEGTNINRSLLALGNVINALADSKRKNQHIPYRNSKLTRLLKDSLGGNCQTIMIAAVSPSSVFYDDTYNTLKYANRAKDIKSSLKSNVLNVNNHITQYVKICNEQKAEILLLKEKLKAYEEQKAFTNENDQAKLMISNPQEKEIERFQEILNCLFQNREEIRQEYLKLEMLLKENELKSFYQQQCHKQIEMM
T1 sequence (P02550 whole entry partner): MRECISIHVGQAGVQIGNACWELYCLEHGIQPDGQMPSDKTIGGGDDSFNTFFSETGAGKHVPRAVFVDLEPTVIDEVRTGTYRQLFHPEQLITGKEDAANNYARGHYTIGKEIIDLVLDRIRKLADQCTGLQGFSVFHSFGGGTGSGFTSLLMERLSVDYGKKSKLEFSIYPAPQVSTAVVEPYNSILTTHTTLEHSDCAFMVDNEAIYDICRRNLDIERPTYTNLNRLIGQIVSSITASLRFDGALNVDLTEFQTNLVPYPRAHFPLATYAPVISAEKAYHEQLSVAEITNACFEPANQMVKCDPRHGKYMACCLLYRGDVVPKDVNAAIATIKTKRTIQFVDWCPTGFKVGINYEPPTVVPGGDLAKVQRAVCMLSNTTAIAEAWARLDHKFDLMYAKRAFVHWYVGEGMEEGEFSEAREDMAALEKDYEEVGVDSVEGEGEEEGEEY
T1 sequence (P02554 whole entry partner): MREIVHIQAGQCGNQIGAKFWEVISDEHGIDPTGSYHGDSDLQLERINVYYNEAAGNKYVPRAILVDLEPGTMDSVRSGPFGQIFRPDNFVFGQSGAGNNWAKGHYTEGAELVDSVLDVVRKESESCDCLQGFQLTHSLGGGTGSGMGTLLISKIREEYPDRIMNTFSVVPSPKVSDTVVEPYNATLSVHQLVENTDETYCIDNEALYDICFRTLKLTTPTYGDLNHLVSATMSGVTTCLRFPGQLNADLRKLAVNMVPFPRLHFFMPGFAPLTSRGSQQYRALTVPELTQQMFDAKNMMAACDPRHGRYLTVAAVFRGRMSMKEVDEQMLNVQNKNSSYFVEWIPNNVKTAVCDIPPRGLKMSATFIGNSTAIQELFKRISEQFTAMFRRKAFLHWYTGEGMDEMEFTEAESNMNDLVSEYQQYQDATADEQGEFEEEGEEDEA
Summary of the method: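 Buffer 15 mM Tris pH 7.5, 10 mM MgCl2, 0.01% Pluronic F-68, 1 μM paclitaxel, 30 μg/mL pig microtubules; reactions at room temperature. IC50 from inhibition relative to DMSO.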

Compound | IC50 [nM]
COc1ccc(C(=O)Nc2ccc(S(=O)(=O)NCCO)cc2N2CCC3(CC2)CC3)nc1N1CC(F)(F)C1 [Compound 340] | ≤ 100
COc1ccc(C(=O)Nc2ccc(S(=O)(=O)NCCO)cc2N2CCC3(CC2)CC3)nc1OCCC(F)(F)F [Compound 341] | ≤ 100
COc1ccc(C(=O)Nc2ccc(S(=O)(=O)NCCO)cc2N2CCC3(CC2)CC3)nc1N1CCC2(CC2)C1 [Compound 342] | ≤ 100
COc1ccc(C(=O)Nc2ccc(S(=O)(=O)NCCO)cc2N2CCC3(CC2)CC3)nc1OC1CCC1 [Compound 343] | ≤ 100
COc1ccc(C(=O)Nc2ccc(S(=O)(=O)NCCO)cc2N2CCC3(CC2)CC3)nc1N1CCC(C)(F)C1 (centres unmarked) [Compound 344] | ≤ 100
COc1ccc(C(=O)Nc2ccc(S(=O)(=O)NCCO)cc2N2CCC3(CC2)CC3)nc1N1CCC(F)CC1 [Compound 345] | ≤ 100
COc1ccc(C(=O)Nc2ccc(S(=O)(=O)NCCO)cc2N2CCC3(CC2)CC3)nc1N1CC2CC2C1 (centres unmarked) [Compound 346] | ≤ 100
COc1ccc(C(=O)Nc2ccc(S(=O)(=O)NCCO)cc2N2CCC3(CC2)CC3)nc1NC(C)(C)CO [Compound 347] | ≤ 100
COc1ccc(C(=O)Nc2ccc(S(=O)(=O)NCCO)cc2N2CCC3(CC2)CC3)nc1N1CCOCC1 [Compound 348] | ≤ 100
COc1ccc(C(=O)Nc2ccc(S(=O)(=O)N[C@@H](C)CO)cc2N2CCC3(CC2)CC3)nc1N1CCC(F)(F)CC1 [Compound 349] | ≤ 100
COc1ccc(C(=O)Nc2ccc(S(=O)(=O)N[C@H](C)CO)cc2N2CCC3(CC2)CC3)nc1N1CCC(F)(F)CC1 [Compound 350] | ≤ 100
COc1ccc(C(=O)Nc2ccc(S(=O)(=O)N[C@@H](C)CO)cc2N2CCC3(CC2)CC3)nc1N1CCO[C@H](C)C1 [Compound 351] | ≤ 100
COc1ccc(C(=O)Nc2ccc(S(=O)(=O)N[C@H](C)CO)cc2N2CCC3(CC2)CC3)nc1N1CCO[C@H](C)C1 [Compound 352] | ≤ 100
COc1ccc(C(=O)Nc2cnc(NS(=O)(=O)CCO)cc2N2CCC3(CC2)CC3)nc1N1CCO[C@H](C)C1 [Compound 354] | ≤ 100
COc1ccc(C(=O)Nc2cnc(NS(=O)(=O)CCO)cc2N2CCC3(CC2)CC3)nc1N1CCO[C@@H](C)C1 [Compound 355] | ≤ 100
COc1ccc(C(=O)Nc2cnc(NS(=O)(=O)CCO)cc2N2CCC3(CC2)CC3)nc1N1CC(F)(F)C1 [Compound 356] | ≤ 100
COc1ccc(C(=O)Nc2cnc(NS(=O)(=O)CCO)cc2N2CCC3(CC2)CC3)nc1OCCC(F)(F)F [Compound 357] | ≤ 100
COc1ccc(C(=O)Nc2cnc(NS(=O)(=O)CCO)cc2N2CCC3(CC2)CC3)nc1N1CCC2(CC2)C1 [Compound 358] | ≤ 100
COc1ccc(C(=O)Nc2cnc(NS(=O)(=O)CCO)cc2N2CCC3(CC2)CC3)nc1OC1CCC1 [Compound 359] | ≤ 100
COc1ccc(C(=O)Nc2cnc(NS(=O)(=O)CCO)cc2N2CCC3(CC2)CC3)nc1N1CCC(C)(F)C1 (centres unmarked) [Compound 360] | ≤ 100
COc1ccc(C(=O)Nc2cnc(NS(=O)(=O)CCO)cc2N2CCC3(CC2)CC3)nc1N1CCC(F)CC1 [Compound 361] | ≤ 100
COc1ccc(C(=O)Nc2cnc(NS(=O)(=O)CCO)cc2N2CCC3(CC2)CC3)nc1N1CC2CC2C1 (centres unmarked) [Compound 362] | ≤ 100

Compound | IC50 [nM]
COc1ccc(C(=O)Nc2cnc(NS(=O)(=O)CCO)cc2N2CCC3(CC2)CC3)nc1NC(C)(C)CO [Compound 363] | ≤ 100
COc1ccc(C(=O)Nc2cnc(NS(=O)(=O)CCO)cc2N2CCC3(CC2)CC3)nc1N1CCOCC1 [Compound 364] | ≤ 100
COc1ccc(C(=O)Nc2cnc(NS(=O)(=O)[C@@H](C)CO)cc2N2CCC3(CC2)CC3)nc1N1CCC(F)(F)CC1 [Compound 365] | ≤ 100
COc1ccc(C(=O)Nc2cnc(NS(=O)(=O)[C@H](C)CO)cc2N2CCC3(CC2)CC3)nc1N1CCC(F)(F)CC1 [Compound 366] | ≤ 100
COc1ccc(C(=O)Nc2cnc(NS(=O)(=O)[C@@H](C)CO)cc2N2CCC3(CC2)CC3)nc1N1CCO[C@H](C)C1 [Compound 367] | ≤ 100
COc1ccc(C(=O)Nc2cnc(NS(=O)(=O)[C@H](C)CO)cc2N2CCC3(CC2)CC3)nc1N1CCO[C@H](C)C1 [Compound 368] | ≤ 100
COc1ccc(C(=O)Nc2cnc(S(=O)(=O)NCCO)cc2N2CCC3(CC2)CC3)nc1N1CCC(F)(F)CC1 [Compound 369] | ≤ 100
COc1ccc(C(=O)Nc2cnc(S(=O)(=O)NCCO)cc2N2CCC3(CC2)CC3)nc1N1CCO[C@H](C)C1 [Compound 370] | ≤ 100
COc1ccc(C(=O)Nc2cnc(S(=O)(=O)NCCO)cc2N2CCC3(CC2)CC3)nc1N1CCO[C@@H](C)C1 [Compound 371] | ≤ 100
COc1ccc(C(=O)Nc2cnc(S(=O)(=O)NCCO)cc2N2CCC3(CC2)CC3)nc1N1CC(F)(F)C1 [Compound 372] | ≤ 100
COc1ccc(C(=O)Nc2cnc(S(=O)(=O)NCCO)cc2N2CCC3(CC2)CC3)nc1OCCC(F)(F)F [Compound 373] | ≤ 100
COc1ccc(C(=O)Nc2cnc(S(=O)(=O)NCCO)cc2N2CCC3(CC2)CC3)nc1N1CCC2(CC2)C1 [Compound 374] | ≤ 100
COc1ccc(C(=O)Nc2cnc(S(=O)(=O)NCCO)cc2N2CCC3(CC2)CC3)nc1OC1CCC1 [Compound 375] | ≤ 100
COc1ccc(C(=O)Nc2cnc(S(=O)(=O)NCCO)cc2N2CCC3(CC2)CC3)nc1N1CCC(C)(F)C1 (centres unmarked) [Compound 376] | ≤ 100
COc1ccc(C(=O)Nc2cnc(S(=O)(=O)NCCO)cc2N2CCC3(CC2)CC3)nc1N1CCC(F)CC1 [Compound 377] | ≤ 100
COc1ccc(C(=O)Nc2cnc(S(=O)(=O)NCCO)cc2N2CCC3(CC2)CC3)nc1N1CC2CC2C1 (centres unmarked) [Compound 378] | ≤ 100
COc1ccc(C(=O)Nc2cnc(S(=O)(=O)NCCO)cc2N2CCC3(CC2)CC3)nc1NC(C)(C)CO [Compound 379] | ≤ 100
COc1ccc(C(=O)Nc2cnc(S(=O)(=O)NCCO)cc2N2CCC3(CC2)CC3)nc1N1CCOCC1 [Compound 380] | ≤ 100
COc1ccc(C(=O)Nc2cnc(S(=O)(=O)N[C@@H](C)CO)cc2N2CCC3(CC2)CC3)nc1N1CCC(F)(F)CC1 [Compound 381] | ≤ 100
COc1ccc(C(=O)Nc2cnc(S(=O)(=O)N[C@H](C)CO)cc2N2CCC3(CC2)CC3)nc1N1CCC(F)(F)CC1 [Compound 382] | ≤ 100
COc1ccc(C(=O)Nc2cnc(S(=O)(=O)N[C@@H](C)CO)cc2N2CCC3(CC2)CC3)nc1N1CCO[C@H](C)C1 [Compound 383] | ≤ 100
COc1ccc(C(=O)Nc2cnc(NS(=O)(=O)[C@H](C)CO)cc2N2CCC3(CC2)CC3)nc1N1CCO[C@H](C)C1 [Compound 384] | ≤ 100

Compound | IC50 [nM]
C[C@@H]1CN(c2cc(NC(=O)c3ccc(NS(=O)(=O)CCO)cc3N3CCC4(CC3)CC4)ccc2OCF)CCO1 [Compound 386] | ≤ 100
C[C@H]1CN(c2cc(NC(=O)c3ccc(NS(=O)(=O)CCO)cc3N3CCC4(CC3)CC4)ccc2OCF)CCO1 [Compound 387] | ≤ 100
O=C(Nc1ccc(OCF)c(N2CC(F)(F)C2)c1)c1ccc(NS(=O)(=O)CCO)cc1N1CCC2(CC1)CC2 [Compound 388] | ≤ 100
O=C(Nc1ccc(OCF)c(OCCC(F)(F)F)c1)c1ccc(NS(=O)(=O)CCO)cc1N1CCC2(CC1)CC2 [Compound 389] | ≤ 100
O=C(Nc1ccc(OCF)c(N2CCC3(CC3)C2)c1)c1ccc(NS(=O)(=O)CCO)cc1N1CCC2(CC1)CC2 [Compound 390] | ≤ 100
O=C(Nc1ccc(OCF)c(OC2CCC2)c1)c1ccc(NS(=O)(=O)CCO)cc1N1CCC2(CC1)CC2 [Compound 391] | ≤ 100
CC1(F)CCN(c2cc(NC(=O)c3ccc(NS(=O)(=O)CCO)cc3N3CCC4(CC3)CC4)ccc2OCF)C1 (centres unmarked) [Compound 392] | ≤ 100
O=C(Nc1ccc(OCF)c(N2CCC(F)CC2)c1)c1ccc(NS(=O)(=O)CCO)cc1N1CCC2(CC1)CC2 [Compound 393] | ≤ 100
CC(C)(CO)Nc1cc(NC(=O)c2ccc(NS(=O)(=O)CCO)cc2N2CCC3(CC2)CC3)ccc1OCF [Compound 395] | ≤ 100
O=C(Nc1ccc(OCF)c(N2CCOCC2)c1)c1ccc(NS(=O)(=O)CCO)cc1N1CCC2(CC1)CC2 [Compound 396] | ≤ 100
C[C@@H](CO)S(=O)(=O)Nc1ccc(C(=O)Nc2ccc(OCF)c(N3CCC(F)(F)CC3)c2)c(N2CCC3(CC2)CC3)c1 [Compound 397] | ≤ 100
C[C@H](CO)S(=O)(=O)Nc1ccc(C(=O)Nc2ccc(OCF)c(N3CCC(F)(F)CC3)c2)c(N2CCC3(CC2)CC3)c1 [Compound 398] | ≤ 100
C[C@@H]1CN(c2cc(NC(=O)c3ccc(NS(=O)(=O)[C@@H](C)CO)cc3N3CCC4(CC3)CC4)ccc2OCF)CCO1 [Compound 399] | ≤ 100
O=C(Nc1ccc(OCF)c(N2CCC(F)(F)CC2)c1)c1ccc(S(=O)(=O)NCCO)cc1N1CCC2(CC1)CC2 [Compound 401] | ≤ 100
C[C@@H]1CN(c2cc(NC(=O)c3cnc(S(=O)(=O)NCCO)cc3N3CCC4(CC3)CC4)ccc2OCF)CCO1 [Compound 402] | ≤ 100
C[C@H]1CN(c2cc(C(=O)Nc3ccc(S(=O)(=O)NCCO)cc3N3CCC4(CC3)CC4)ccc2OCF)CCO1 [Compound 403] | ≤ 100
O=C(Nc1ccc(OCF)c(N2CC(F)(F)C2)c1)c1ccc(S(=O)(=O)NCCO)cc1N1CCC2(CC1)CC2 [Compound 404] | ≤ 100
O=C(Nc1ccc(OCF)c(OCCC(F)(F)F)c1)c1ccc(S(=O)(=O)NCCO)cc1N1CCC2(CC1)CC2 [Compound 405] | ≤ 100
O=C(Nc1ccc(OCF)c(N2CCC3(CC3)C2)c1)c1ccc(S(=O)(=O)NCCO)cc1N1CCC2(CC1)CC2 [Compound 406] | ≤ 100
O=C(Nc1ccc(OCF)c(OC2CCC2)c1)c1ccc(S(=O)(=O)NCCO)cc1N1CCC2(CC1)CC2 [Compound 407] | ≤ 100
CC1(F)CCN(c2cc(NC(=O)c3ccc(S(=O)(=O)NCCO)cc3N3CCC4(CC3)CC4)ccc2OCF)C1 (centres unmarked) [Compound 408] | ≤ 100
